Experimental data from patent US8519149B2, “Tricyclic compounds as mPGES-1 inhibitors” (Glenmark Pharmaceuticals S.A., priority 2010, dated 2013).

Biological target: T1, Recombinant human mPGES-1 (Homo sapiens, UniProt O14684)
T1 sequence (O14684 1-152): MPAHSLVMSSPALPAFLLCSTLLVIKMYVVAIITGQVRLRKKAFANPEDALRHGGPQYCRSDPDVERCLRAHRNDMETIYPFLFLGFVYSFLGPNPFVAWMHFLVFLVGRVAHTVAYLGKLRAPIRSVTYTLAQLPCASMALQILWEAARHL
Experiment: In-vitro mPGES-1 enzyme inhibition assay (PGE2 formation from PGH2, HTRF detection)
Assay type: biochemical
Conditions: for inhibition at 1 µM: 1 μM test compound, read-out: Percentage inhibition at 1 μM; for inhibition at 1 µM / inhibition at 10 µM: recombinant human mPGES-1 microsomal fraction; for inhibition at 10 µM: 10 μM test compound, read-out: Percentage inhibition at 10 μM; for IC50: class symbols, selected examples
Summary of the method: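 IC50 values were derived by nonlinear regression of percent inhibition relative to enzyme reactions run without inhibitor. PGE2 formed from PGH2 with GSH was quantified by antibody-based HTRF after stannous chloride quench. Enzyme source was human mPGES-1 microsomes at 40-60 μg/mL protein; DMSO 0.5% (v/v).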

Compound	inhibition at 1 µM	inhibition at 10 µM	IC50
Cc1ccc(Nc2nc3cc(C(=O)NCc4ccc(C(F)(F)F)cc4)c4c(c3[nH]2)CC(C)(C)O4)c(Cl)c1 [Example-92, 2-[(2-Chloro-4-methylphenyl)amino]-7,7-dimethyl-N-[4-(trifluoromethyl)benzyl]-7,8-dihydro-1H-furo[3,2-e]benzimidazole-5-carboxamide]	75.4%	76%	–
CC1(C)Cc2c(c(C(=O)NC3CCC(F)(F)CC3)cc3nc(Nc4c(Cl)cccc4Cl)[nH]c23)O1 [Example-93, 2-[(2,6-Dichlorophenyl)amino]-N-(4,4-difluorocyclohexyl)-7,7-dimethyl-7,8-dihydro-1H-furo[3,2-e]benzimidazole-5-carboxamide]	83.1%	80.9%	–
CC1(C)Cc2c(c(C(=O)NCC(F)(F)C(F)(F)F)cc3nc(Nc4ccc(F)cc4Cl)[nH]c23)O1 [Example-94, 2-[(2-Chloro-4-fluorophenyl)amino]-7,7-dimethyl-N-(2,2,3,3,3-pentafluoropropyl)-7,8-dihydro-1H-furo[3,2-e]benzimidazole-5-carboxamide]	66%	76.4%	–
CC1(C)Cc2c(c(C(=O)Nc3nc4ccc(F)cc4s3)cc3nc(Nc4c(Cl)cccc4Cl)[nH]c23)O1 [Example-95, 2-[(2,6-Dichlorophenyl)amino]-N-(6-fluoro-1,3-benzothiazol-2-yl)-7,7-dimethyl-7,8-dihydro-1H-furo[3,2-e]benzimidazole-5-carboxamide]	90.6%	91.8%	< 50 nM
CC1(C)Cc2c(c(C(=O)Nc3ccc(N4CCCC4)nc3)cc3nc(Nc4c(Cl)cccc4Cl)[nH]c23)O1 [Example-96, 2-[(2,6-Dichlorophenyl)amino]-7,7-dimethyl-N-[6-(pyrrolidin-1-yl)pyridin-3-yl]-7,8-dihydro-1H-furo[3,2-e]benzimidazole-5-carboxamide]	90.4%	95.1%	< 50 nM
Cc1ccc(Cl)c(Nc2nc3cc(C(=O)Nc4ccccc4C(F)(F)F)c4c(c3[nH]2)CC(C)(C)O4)c1 [Example-97, 2-[(2-Chloro-5-methylphenyl)amino]-7,7-dimethyl-N-[2-(trifluoromethyl)phenyl]-7,8-dihydro-1H-furo[3,2-e]benzimidazole-5-carboxamide]	96.7%	95.3%	< 50 nM
CC1(C)Cc2c(c(C(=O)Nc3ccccc3C(F)(F)F)cc3nc(Nc4ccccc4C(C)(C)C)[nH]c23)O1 [Example-98, 2-[(2-tert-Butylphenyl)amino]-7,7-dimethyl-N-[2-(trifluoromethyl)phenyl]-7,8-dihydro-1H-furo[3,2-e]benzimidazole-5-carboxamide]	12%	13.9%	–
COCCn1c(Nc2c(Cl)cccc2Cl)nc2cc(C(=O)Nc3ccc(C(F)(F)F)cc3)c3c(c21)CC(C)(C)O3 [Example-99, 2-[(2,6-Dichlorophenyl)amino]-1-(2-methoxyethyl)-7,7-dimethyl-N-[4-(trifluoromethyl)phenyl]-7,8-dihydro-1H-furo[3,2-e]benzimidazole-5-carboxamide]	95.3%	99.7%	< 50 nM
COCCn1c(Nc2c(Cl)cccc2Cl)nc2cc(C(=O)Nc3ccccc3C(F)(F)F)c3c(c21)CC(C)(C)O3 [Example-100, 2-[(2,6-Dichlorophenyl)amino]-1-(2-methoxyethyl)-7,7-dimethyl-N-[2-(trifluoromethyl)phenyl]-7,8-dihydro-1H-furo[3,2-e]benzimidazole-5-carboxamide]	96.6%	95.6%	< 50 nM
CC1(C)Cc2c(c(C(=O)Nc3ccc(C(F)(F)F)cn3)cc3nc(Nc4c(Cl)cccc4Cl)[nH]c23)O1 [Example-101, 2-[(2,6-Dichlorophenyl)amino]-7,7-dimethyl-N-[5-(trifluoromethyl)pyridin-2-yl]-7,8-dihydro-1H-furo[3,2-e]benzimidazole-5-carboxamide]	97.6%	98%	< 50 nM
CC1(C)Cc2c(c(C(=O)Nc3ccc(C(F)(F)F)cc3)cc3nc(Nc4ccccc4C(C)(C)C)[nH]c23)O1 [Example-102, 2-[(2-tert-Butylphenyl)amino]-7,7-dimethyl-N-[4-(trifluoromethyl)phenyl]-7,8-dihydro-1H-furo[3,2-e]benzimidazole-5-carboxamide]	19.3%	22.8%	–
Cc1ccc(Nc2nc3cc(C(=O)Nc4ccc(C(F)(F)F)cc4)c4c(c3[nH]2)CC(C)(C)O4)c(C)n1 [Example-103, 2-[(2,6-Dimethylpyridin-3-yl)amino]-7,7-dimethyl-N-[4-(trifluoromethyl)phenyl]-7,8-dihydro-1H-furo[3,2-e]benzimidazole-5-carboxamide]	7.88%	25.8%	–
CC1(C)Cc2c(c(C(=O)Nc3ccc(F)c(C(F)(F)F)c3)cc3nc(Nc4c(F)cccc4Cl)[nH]c23)O1 [Example-104, 2-[(2-Chloro-6-fluorophenyl)amino]-N-[4-fluoro-3-(trifluoromethyl)phenyl]-7,7-dimethyl-7,8-dihydro-1H-furo[3,2-e]benzimidazole-5-carboxamide]	100%	92%	< 50 nM
CC1(C)Cc2c(c(C(=O)Nc3ccc(F)cc3C#N)cc3nc(Nc4c(F)cccc4Cl)[nH]c23)O1 [Example-105, 2-[(2-Chloro-6-fluorophenyl)amino]-N-(2-cyano-4-fluorophenyl)-7,7-dimethyl-7,8-dihydro-1H-furo[3,2-e]benzimidazole-5-carboxamide]	91.2%	95.5%	> 100 nM
Cc1ccc(Nc2nc3cc(C(=O)Nc4ccccc4C(F)(F)F)c4c(c3[nH]2)CC(C)(C)O4)c(C)n1 [Example-106]	9.35%	46.2%	–
Cc1cccc(Cl)c1Nc1nc2cc(C(=O)Nc3ccc(C(F)(F)F)cc3)c3c(c2[nH]1)CC(C)(C)O3 [Example-108, 2-[(2-Chloro-6-methylphenyl)amino]-7,7-dimethyl-N-[4-(trifluoromethyl)phenyl]-7,8-dihydro-1H-furo[3,2-e]benzimidazole-5-carboxamide]	93.9%	96.3%	< 50 nM
Cc1cccc(Cl)c1Nc1nc2cc(C(=O)Nc3c(F)cc(F)cc3F)c3c(c2[nH]1)CC(C)(C)O3 [Example-109, 2-[(2-Chloro-6-methylphenyl)amino]-7,7-dimethyl-N-(2,4,6-trifluorophenyl)-7,8-dihydro-1H-furo[3,2-e]benzimidazole-5-carboxamide]	93.8%	98.8%	50 to 100 nM
Cc1cccc(Cl)c1Nc1nc2cc(C(=O)Nc3cc(C(F)(F)F)ccc3F)c3c(c2[nH]1)CC(C)(C)O3 [Example-110, 2-[(2-Chloro-6-methylphenyl)amino]-N-[2-fluoro-5-(trifluoromethyl)phenyl]-7,7-dimethyl-7,8-dihydro-1H-furo[3,2-e]benzimidazole-5-carboxamide]	96.6%	97.2%	< 50 nM
